Laboratory results as given in the supplement of paper PMC10307832.

How the values were obtained:
Test in all cases: relative viability (nuclei count vs DMSO), 5 days (fraction); higher = more cells survive
[1] = compound: CN1C=C(C2=CC=CC=C21)/C=C\3/C4=C(C=CC=N4)NC3=O + CCNC(=O)c1noc(-c2cc(C(C)C)c(O)cc2O)c1-c1ccc(CN2CCOCC2)cc1 [Luminespib] (partner 0.01 µM)
In short: (§1)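 Dosing by pin tool came one day after lung cancer cell lines were seeded in 1536-well plates, using either one drug or a fixed anchor-drug dose plus five library-drug doses (not always all listed) in √10 steps. After 5 days, nuclei were counted on 4× images. Relative viability is treated-well nuclei count divided by vehicle-well nuclei count, and values are medians of duplicate plates.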

[2] = compound: CC(=O)Nc1cccc(-n2c(=O)n(C3CC3)c(=O)c3c(Nc4ccc(I)cc4F)n(C)c(=O)c(C)c32)c1 [Trametinib] + Nc1nc2[nH]cc(CCc3ccc(C(=O)N[C@@H](CCC(=O)O)C(=O)O)cc3)c2c(=O)[nH]1 [Pemetrexed] (partner 0.2 µM)
In short: as §1

[3] = compound: CC(=O)Nc1cccc(-n2c(=O)n(C3CC3)c(=O)c3c(Nc4ccc(I)cc4F)n(C)c(=O)c(C)c32)c1 [Trametinib] + O=C(CCCCCCC(=O)Nc1ccccc1)NO [Vorinostat] (partner 1 µM)
In short: as §1

[4] = compound: CC(=O)Nc1cccc(-n2c(=O)n(C3CC3)c(=O)c3c(Nc4ccc(I)cc4F)n(C)c(=O)c(C)c32)c1 [Trametinib] + CS(=O)(=O)N1CCN(Cc2cc3nc(-c4cccc5[nH]ncc45)nc(N4CCOCC4)c3s2)CC1 [Pictilisib] (partner 1 µM)
In short: as §1

Cell Line | relative viability ([1]; first compound 0.02 µM) | relative viability ([1]; first compound 0.06325 µM) | relative viability ([1]; first compound 0.2 µM) | relative viability ([1]; first compound 0.6325 µM) | relative viability ([1]; first compound 2 µM) | relative viability ([2]; first compound 0.0025 µM) | relative viability ([2]; first compound 0.007906 µM) | relative viability ([2]; first compound 0.025 µM) | relative viability ([2]; first compound 0.07906 µM) | relative viability ([2]; first compound 0.25 µM) | relative viability ([3]; first compound 0.0025 µM) | relative viability ([3]; first compound 0.007906 µM) | relative viability ([3]; first compound 0.025 µM) | relative viability ([3]; first compound 0.07906 µM) | relative viability ([3]; first compound 0.25 µM) | relative viability ([4]; first compound 0.0025 µM) | relative viability ([4]; first compound 0.007906 µM) | relative viability ([4]; first compound 0.025 µM) | relative viability ([4]; first compound 0.07906 µM) | relative viability ([4]; first compound 0.25 µM)
EKVX | 0.79 | 0.784 | 0.821 | 0.865 | 0.868 | 0.345 | 0.381 | 0.402 | 0.312 | 0.358 | 0.63 | 0.442 | 0.365 | 0.405 | 0.321 | 0.363 | 0.318 | 0.228 | 0.214 | 0.193
HCC-827 | 0.589 | 0.52 | – | 0.59 | 0.756 | 0.271 | 0.271 | 0.263 | 0.214 | 0.235 | 0.903 | 0.876 | 0.71 | 0.677 | 0.502 | 0.949 | 0.986 | 0.959 | 0.666 | 0.627
NCI-H1755 | 0.376 | 0.369 | 0.541 | 0.37 | 0.387 | 0.378 | 0.452 | 0.411 | 0.47 | 0.397 | 0.829 | 0.698 | 0.686 | 0.735 | 0.747 | 0.396 | 0.348 | 0.248 | 0.331 | 0.228
NCI-H661 | 1.06 | 0.875 | 0.946 | 0.973 | 0.917 | 0.882 | 0.889 | 0.821 | 0.753 | 0.753 | 0.742 | 0.753 | 0.782 | 0.782 | 0.724 | 0.377 | 0.426 | 0.222 | 0.273 | 0.257
NCI-H1944 | 0.706 | 0.742 | – | 0.767 | 0.897 | 0.514 | 0.429 | 0.39 | 0.318 | 0.29 | 0.556 | 0.387 | 0.382 | 0.348 | 0.28 | 0.333 | 0.307 | 0.253 | 0.278 | 0.262
NCI-H23 | 0.232 | 0.178 | – | 0.194 | 0.222 | 0.549 | 0.47 | 0.437 | 0.305 | 0.264 | 0.501 | 0.537 | 0.277 | 0.323 | 0.126 | 0.348 | 0.357 | 0.217 | 0.27 | 0.189
NCI-H1648 | – | – | – | – | – | 0.676 | 0.69 | 0.883 | 0.752 | 0.559 | 0.422 | 0.479 | 0.488 | 0.3 | 0.376 | – | – | – | – | –
NCI-H522 | 1.32 | 0.937 | 1.02 | 1.18 | 1.12 | 1.04 | 1.07 | 0.75 | 0.742 | 0.752 | 0.823 | 0.798 | 0.836 | 0.763 | 0.671 | – | – | – | – | –
HCC-366 | – | – | – | – | – | 0.24 | 0.213 | 0.236 | 0.188 | 0.169 | 0.354 | 0.291 | 0.357 | 0.356 | 0.106 | 0.09 | 0.138 | 0.102 | 0.1 | 0.0818
EBC-1 | – | – | – | – | – | – | – | – | – | – | – | – | – | – | – | 0.244 | 0.204 | 0.134 | 0.137 | 0.168
ChaGo-K-1 | 0.54 | 0.56 | 0.522 | 0.482 | 0.59 | 0.281 | 0.253 | 0.261 | 0.259 | 0.248 | 0.659 | 0.623 | 0.685 | 0.731 | 0.418 | 0.841 | 0.47 | 0.694 | 0.261 | 0.461
NCI-H1299 | – | – | – | – | – | – | – | – | – | – | – | – | – | – | – | 0.475 | 0.47 | 0.32 | 0.0746 | 0.157
NCI-H1623 | 0.422 | 0.473 | 0.428 | 0.446 | 0.289 | – | – | – | – | – | – | – | – | – | – | – | – | – | – | –
IA-LM | – | – | – | – | – | – | – | – | – | – | 0.744 | 0.604 | 0.255 | 0.125 | 0.12 | 0.142 | 0.091 | 0.073 | 0.0818 | 0.0673
A549 | – | – | – | – | – | – | – | – | – | – | – | – | – | – | – | 0.375 | 0.237 | 0.179 | 0.121 | 0.072
NCI-H1563 | 0.506 | 0.537 | 0.541 | 0.483 | 0.464 | 0.787 | 0.755 | 0.574 | 0.669 | 0.657 | – | – | – | – | – | 0.624 | 0.72 | 0.652 | 0.572 | 0.536
NCI-H727 | 0.365 | 0.329 | 0.394 | 0.4 | 0.271 | – | – | – | – | – | 0.961 | 0.851 | 0.424 | 0.387 | 0.382 | 0.333 | 0.207 | 0.176 | 0.149 | 0.25
Calu-6 | – | – | – | – | – | – | – | – | – | – | – | – | – | – | – | 0.739 | 0.45 | 0.193 | 0.136 | 0.121
HCC-78 | – | – | – | – | – | 0.843 | 0.888 | 0.893 | 0.934 | 0.924 | 0.447 | 0.377 | 0.382 | 0.433 | 0.414 | 0.205 | 0.154 | 0.185 | 0.152 | 0.212
NCI-H2342 | 0.685 | 0.743 | 0.6 | 0.757 | 0.669 | 0.688 | 0.727 | 0.459 | 0.689 | 0.685 | 0.727 | 0.793 | 0.488 | 0.685 | 0.68 | – | – | – | – | –
